Measurements reported in patent US20230069804A1, “METHODS AND COMPOSITIONS FOR MODULATING SPLICING” (SkyHawk Therapeutics, Inc., priority 2019, published 2023).
Several values for one entry are separate records, joined by “and”; a condition that tells them apart may be missing. Identical values can stand only once.

Tests used:
[1] = tested on: MDR1-MDCK cell monolayers; experiment: MDCK-MDR1 permeability assay (BBB penetration potential); assay type: in vitro ADME; conditions: Papp (B-to-A)/Papp (A-to-B); 5 μM, 120 minutes; separated enantiomers, told apart by chiral retention time
Method: (§1) Each determination is performed in duplicate. […] Analytical conditions are outlined below.
(§2) Papp=(dCr/dt)×Vr/(A×CA) (1)

MDR1 = experiment: as above; assay type: in vitro ADME; conditions: dog, MDCK-MDR1, pH 7.4, Papp (B-to-A)/Papp (A-to-B); 5 μM, 120 minutes; separated enantiomers, told apart by chiral retention time; read-out: MDCK MDRP1 Efflux Ratio
Method: as §1, §2

| Structure (SMILES) | MDCK MDRP1 Efflux Ratio [1] | efflux ratio at 120 min, 5 μM (MDR1) |
| --- | --- | --- |
| CN(c1nnc(-c2ccc(-c3cnn(C)c3)cc2O)s1)[C@@H]1C[C@H]2CCC[C@H](N2)[C@@H]1F (racemic) [1A/1B, 2-(5-(((1S,2S,3R,5R)-2-fluoro-9-azabicyclo[3.3.1]nonan-3-yl)(methyl)amino)-1,3,4-thiadiazol-2-yl)-5-(1-methyl-1H-pyrazol-4-yl)phenol and 2-(5-(((1R,2R,3S,5S)-2-fluoro-9-azabicyclo[3.3.1]nonan-3-yl)(methyl)amino)-1,3,4-thiadiazol-2-yl)-5-(1-methyl-1H-pyrazol-4-yl)phenol] | 6 | 5.5 |
| COc1cc(-c2ccc(-c3nnc(N(C4CC4)[C@@H]4C[C@H]5CC[C@H](N5)[C@@H]4F)s3)c(O)c2)cc(F)n1 (racemic) [2A/2B, 2-(5-(cyclopropyl((1S,2S,3R,5R)-2-fluoro-8-azabicyclo[3.2.1]octan-3-yl)amino)-1,3,4-thiadiazol-2-yl)-5-(2-fluoro-6-methoxypyridin-4-yl)phenol and 2-(5-(cyclopropyl((1R,2R,3S,5S)-2-fluoro-8-azabicyclo[3.2.1]octan-3-yl)amino)-1,3,4-thiadiazol-2-yl)-5-(2-fluoro-6-methoxypyridin-4-yl)phenol] |  | 5 |
| CN(c1nnc(-c2ccc(-c3cnn(C)c3)cc2O)s1)[C@H]1C[C@@H]2CC[C@@H](N2)[C@H]1F (racemic) [3A/3B, 2-(5-(((1R,2R,3S,5S)-2-fluoro-8-azabicyclo[3.2.1]octan-3-yl)(methyl)amino)-1,3,4-thiadiazol-2-yl)-5-(1-methyl-1H-pyrazol-4-yl)phenol] | 5.3 | 4.3 |
| COc1cc(-c2ccc(-c3nnc(N(C)[C@@H]4C[C@H]5CC[C@H](N5)[C@@H]4F)s3)c(O)c2)ncn1 (racemic) [5A/5B, 2-(5-{[(1S,2S,3R)-2-fluoro-8-azabicyclo[3.2.1]octan-3-yl](methyl)amino}-1,3,4-thiadiazol-2-yl)-5-(6-methoxypyrimidin-4-yl)phenol and 2-(5-{[(2R,3S,5S)-2-fluoro-8-azabicyclo[3.2.1]octan-3-yl](methyl)amino}-1,3,4-thiadiazol-2-yl)-5-(6-methoxypyrimidin-4-yl)phenol] |  | 2 |
| CN(c1nnc(-c2ccc(-c3cn[nH]c3)cc2O)s1)[C@H]1C[C@@H]2CC[C@@H](N2)[C@H]1F (racemic) [7A/7B, 2-(5-{[(1S,2S,3R,5R)-2-fluoro-8-azabicyclo[3.2.1]octan-3-yl](methyl)amino}-1,3,4-thiadiazol-2-yl)-5-(1H-pyrazol-4-yl)phenol and 2-(5-{[(1R,2R,3S,5S)-2-fluoro-8-azabicyclo[3.2.1]octan-3-yl](methyl)amino}-1,3,4-thiadiazol-2-yl)-5-(1H-pyrazol-4-yl)phenol] |  | 12 |
| COc1cc(-c2ccc(-c3nnc(N(C)[C@@H]4C[C@H]5CC[C@H](N5)[C@@H]4F)s3)c(O)c2)ccn1 (racemic) [11A/11B, 2-(5-{[(1S,2S,3R)-2-fluoro-8-azabicyclo[3.2.1]octan-3-yl](methyl)amino}-1,3,4-thiadiazol-2-yl)-5-(2-methoxypyridin-4-yl)phenol and 2-(5-{[(2R,3S,5S)-2-fluoro-8-azabicyclo[3.2.1]octan-3-yl](methyl)amino}-1,3,4-thiadiazol-2-yl)-5-(2-methoxypyridin-4-yl)phenol] |  | 2 |
| CN(c1nnc(-c2ccc(-c3cnn(C)c3)cc2O)s1)[C@H]1C[C@@H]2CC[C@H]([C@H]1F)N2C (racemic) [25A/25B, 2-(5-{[(1S,2S,3R,5R)-2-fluoro-8-methyl-8-azabicyclo[3.2.1]octan-3-yl](methyl)amino}-1,3,4-thiadiazol-2-yl)-5-(1-methyl-1H-pyrazol-4-yl)phenol and 2-(5-{[(1R,2R,3S,5S)-2-fluoro-8-methyl-8-azabicyclo[3.2.1]octan-3-yl](methyl)amino}-1,3,4-thiadiazol-2-yl)-5-(1-methyl-1H-pyrazol-4-yl)phenol] | 3 and 4 |  |
